The source of these data is BindingDB's records for doi:10.1021/jm010801s (2002).

This test has as its target Cathepsin K (Oryctolagus cuniculus) (UniProt P43236). The experiment in a line: Inhibition of recombinant rabbit Cathepsin K in a fluorescence assay.

Chain of Cathepsin K (Oryctolagus cuniculus) (P43236 whole entry, looked up): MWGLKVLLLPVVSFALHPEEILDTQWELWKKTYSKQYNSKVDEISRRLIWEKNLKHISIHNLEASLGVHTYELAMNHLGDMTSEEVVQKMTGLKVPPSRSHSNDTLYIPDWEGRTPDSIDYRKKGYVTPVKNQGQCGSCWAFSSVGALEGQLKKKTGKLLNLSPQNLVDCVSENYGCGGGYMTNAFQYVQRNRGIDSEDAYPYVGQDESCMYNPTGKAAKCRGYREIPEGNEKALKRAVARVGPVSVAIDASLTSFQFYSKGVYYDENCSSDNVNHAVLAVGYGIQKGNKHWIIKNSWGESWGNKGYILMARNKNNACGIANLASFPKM

For `CC(C)C[C@H](NC(=O)OCc1ccccc1)C(=O)NCCNc1cccc(Cl)c1` [{1-[2-(3-Chloro-phenylamino)-ethylcarbamoyl]-3-methyl-butyl}-carbamic acid benzyl ester], the IC50 – broadly, the point on the concentration scale where inhibition reaches its midpoint – is greater than 1000 nM.
As for `Cc1cccc(NCCNC(=O)[C@H](CC(C)C)NC(=O)OCc2ccccc2)c1` [[3-Methyl-1-(2-m-tolylamino-ethylcarbamoyl)-butyl]-carbamic acid benzyl ester], the IC50 amounted to 460 nM.
For `CC(C)C[C@H](NC(=O)OCc1ccccc1)C(=O)NCCNc1ccccc1` [[3-Methyl-1-(2-phenylamino-ethylcarbamoyl)-butyl]-carbamic acid benzyl ester], the IC50 is 470 nM.
In the case of `CC(C)C[C@H](NC(=O)OCc1ccccc1)C(=O)NCCNc1ccc(Cl)cc1` [{1-[2-(4-Chloro-phenylamino)-ethylcarbamoyl]-3-methyl-butyl}-carbamic acid benzyl ester] it was 350 nM; in that of `Cc1ccc(NCCNC(=O)[C@H](CC(C)C)NC(=O)OCc2ccccc2)cc1` [[3-Methyl-1-(2-p-tolylamino-ethylcarbamoyl)-butyl]-carbamic acid benzyl ester], 190 nM.
To `COc1cccc(NCCNC(=O)[C@H](CC(C)C)NC(=O)OCc2ccccc2)c1` [{1-[2-(3-Methoxy-phenylamino)-ethylcarbamoyl]-3-methyl-butyl}-carbamic acid benzyl ester] belongs greater than 1000 nM.
